Reference: patent US8926082B2, “Optically polymerizable ink jet ink, ink cartridge, and printer” (Ricoh Company, Ltd., priority 2011, dated 2015)

Legend:
[1] = skin sensitization test by Local Lymph Node Assay (LLNA), Stimulation Index; assay type: in vivo; conditions: SI less than 3 = no problem
Text: However, inkjet ink in which such compounds are blended to provide a curing property sufficient for practical use has a relatively high viscosity in comparison with typical optical polymerizable inkjet ink. Therefore, for example, if a desirable high image density is to be obtained by increasing the blend ratio of a pigment, such inkjet ink requires an extra decrease in the viscosity to achieve stable ejection.
The Local Lymph Node Assay (LLNA) method is a skin sensitization test defined as OECD Test Guideline 429 and as described in documents such as an issue of September 2005, Vol. 25, No. 9, p 55, published by CMC Publishing Co., Ltd., when a compound has a Stimulation Index (SI) of less than 3, which is an indicator of the degree of […], the compound is determined to have no problem with regard to the skin sensitization.
The details of A1 to A14, B1 and B2, C1 and C2, and D1 in Tables 1 to 8 are as follows: The value in the parentheses at the end of A1 to A14 is an SI value. “negative” or “none” means evaluation of skin sensitization as “negative” or “none” in the MSDS sheet in which the SI value is naturally less than 3.

[2] = "negative" or "none": SI value naturally less than 3; cited from earlier work

C=C(C)C(=O)OC1CCOC1=O (stereo not drawn) [Example A4, γ-butylo lactone methacrylate]
SI value (Stimulation Index) [1]: 2.1

C=CC(=O)NCCO [Example A11, Hydroxyethyl acrylamide]
evaluation of skin sensitization in the MSDS sheet [2]: None

Caprolactone-modified dipentaerythritol hexaacrylate [Example A7]
evaluation of skin sensitization in the MSDS sheet [2]: negative
